Results on nine compounds are retold here after patent publication US8455528B2, “Imidazole derivatives useful as inhibitors of FAAH” (Merck Sharp & Dohme Corp., priority 2008, dated 2013).

This experiment addresses T1, Human FAAH (Homo sapiens, UniProt O00519).
T1 construct: The full length FAAH was subcloned into the mammalian expression vector, pcDEF.neo; expressed in transfected cells
T1 sequence (O00519 1-579): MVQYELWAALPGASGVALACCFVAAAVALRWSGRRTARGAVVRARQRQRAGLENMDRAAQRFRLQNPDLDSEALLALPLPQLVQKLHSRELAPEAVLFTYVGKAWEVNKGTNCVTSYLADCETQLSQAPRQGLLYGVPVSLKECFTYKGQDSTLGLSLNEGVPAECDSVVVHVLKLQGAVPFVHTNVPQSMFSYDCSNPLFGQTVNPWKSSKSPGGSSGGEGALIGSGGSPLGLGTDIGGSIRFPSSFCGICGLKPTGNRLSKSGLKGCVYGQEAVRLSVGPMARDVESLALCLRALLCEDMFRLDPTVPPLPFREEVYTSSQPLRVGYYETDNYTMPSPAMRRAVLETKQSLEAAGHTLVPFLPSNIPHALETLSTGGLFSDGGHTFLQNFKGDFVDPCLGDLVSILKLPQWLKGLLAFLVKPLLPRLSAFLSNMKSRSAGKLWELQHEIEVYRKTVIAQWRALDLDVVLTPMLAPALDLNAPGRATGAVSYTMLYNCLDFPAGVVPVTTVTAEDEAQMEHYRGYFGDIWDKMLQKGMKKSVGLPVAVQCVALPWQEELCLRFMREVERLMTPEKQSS
The experiment can be described thus: Human FAAH whole cell assay (FAAH_CHO cells). Format: cell-based. The conditions noted are these: FAAH inhibition, whole CHO cells expressing human FAAH. The source says:
To assist in assay development stable cell lines for human, murine and rat full length FAAH were developed. Human FAAH cDNA (Accession No: NM_001441.1) was purchased from Origene (Rockville, Md.). The full length FAAH was subcloned into the mammalian expression vector, pcDEF.neo, using XbaI and EcoRI restriction sites and used for stable cell line generation.
Murine (accession number NM_010173) and Rat FAAH (accession number NM_024132) was amplified by reverse transcriptase polymerase chain reaction (RT-PCR) from brain cDNA (BD Biosciences, San Jose, Calif.) using primers 1 and 2 or primers 1 and 3 respectively (see Table). The resulting PCR product was ligated into pCR4 TOPO and DNA sequence confirmed. The full length murine FAAH was subcloned into the mammalian expression vector, pcDEFneo using either EcoRI (murine) or KpnI and EcoRI (rat) restriction sites. Chinese hamster ovary cells (CHO) were transfected following manufacturers protocol (AMAXA). Forty eight hours post transfection, cells were trypsinized and transferred to 96 well plates in Iscove's DMEM media supplemented with 2 mM Glutamine, 10% fetal calf serum, 1 mg/ml geneticin and HT Supplement (0.1 mM sodium hypoxanthine, 0.016 mM thymidine) in order to isolate single clones. Following selection in geneticin, individual clones were selected and FAAH activity was assessed using a whole cell fluorescent anandamide assay, modified from Ramarao et al (2005). Following removal of tissue culture media cells were dislodged following addition of Cellstripper (Mediatech, Inc. Manassas, Va.) and transferred to 96 well black clear bottom assay plate, centrifuged at 1,000 rpm for 3 mins and media removed and replaced with assay buffer (50 mM Tris pH8.0, 1 mM EDTA, 0.1% fatty acid free BSA). The reaction was initiated by addition of fluorescent substrate, AMC Arachidonoyl Amide (Cayman Chemical, Ann Arbor, Mich.) to 1 μM and reaction allowed to proceed for 2 hours at room temperature. Release of fluorescence was monitored in a CytoFluor Multiplate Reader. Cells expressing the highest amount of FAAH activity were selected for study with FAAH inhibitors.
(American Radiolabeled Chemicals; 1 mCi/ml) with FAAH (Life Sciences (1995), 56, 1999-2005 and Journal of Pharmacology and Experimented Therapeutics (1997), 283, 729-734), Analytical. Biochemistry (2003), 318, 270-5. In addition, routine assays were performed monitoring hydrolysis of arachidonyl-7-amino-4-methylcoumarin amide (AAMCA) by following increase in fluorescence upon release of 7-amino 4-methyl coumarin (λEX=355 nm, (λEM=460 nm). Analytical. Biochemistry (2005). 343, 143-51
Assays are performed on either cell lysate or microsome fractions prepared as described or in whole cell format employing either the fluorescent substrate AAMCA (Cayman chemical, Ann Arbor, Mich.) or ^3H-anandmaide ([ETHANOLAMINE-1-3H] American Radiolabeled Chemicals; 1 mCi/ml). The cell lysate or microsome assay is performed in Costar black wall, clear bottom plates by adding FAAH_CHO (whole cell, cell lysate or microsome) in assay buffer (50 mM Phosphate, pH 8.0, 1 mM EDTA, 200 mM KCl, 0.2% glycerol, 0.1% fatty acid free BSA) to each well, followed by either DMSO or compound and allowed to incubate at 22-25° C. for fifteen minutes. AAMCA substrate was used to achieve a final concentration of 1 μM and reaction allowed to proceed at room temperature for 1-3 hours. Fluorescent release as a measure of FAAH activity was monitored by reading the plate in a CytoFluor Multiplate Reader ([…]). Whole cell assay is conducted with cells harvested after rinsing tissue culture flasks three times with Ca^++Mg^++ free PBS, incubating for 10 min in Enzyme free dissociation media and centrifuging for 5 minutes at 1,000 rpm in table top centrifuge. Cells are resuspended in assay buffer at desired cell number in (4×10^4 cells/assay in 96-well format; 1×10^4 cells/assay in 384-well format) and assayed as described.
What is called IC50 is the point on the concentration scale where inhibition reaches its midpoint. Read a high IC50 as weaker potency in that assay. Take `Cn1c(-c2ccccc2)nc(-c2ccc(C#N)cc2)c1Sc1ccc(Cl)cc1` [Ex 2, 4-{5-[(4-Chlorophenyl)thio]-1-methyl-2-phenyl-1H-imidazol-4-yl}benzonitrile]: the 50% inhibitory concentration (IC50) worked out at 84.8 nM. This lies in the double-digit nanomolar range.

Turning to `CS(=O)(=O)c1ccc(-c2nc(C3CCC3)[nH]c2Sc2ccc(Cl)cc2)cc1` [Ex 13], inhibition was half-maximal at 3000 nM (IC50).

On to `Cn1c(C2CCC2)nc(-c2ccc(S(C)(=O)=O)cc2)c1Sc1ccc(Cl)cc1` [Ex 14], for which the half-maximal inhibitory concentration (IC50) worked out at 107 nM. This IC50 lies about 28-fold lower than the previous one.

Consider `CC(C)c1nc(-c2ccc(S(C)(=O)=O)cc2)c(Sc2ccc(Cl)cc2)n1C` [Ex 29, 5-[(4-Chlorophenyl)thio]-2-isopropyl-1-methyl-4-[4-(methylsulfonyl)phenyl]-1H-imidazole], for which it took 480 nM to reach half-maximal inhibition (IC50).

Compound `Cn1cnc(-c2ccc(C#N)cc2)c1Sc1ccc(Cl)cc1` [Ex 33, 4-{5-[(4-chlorophenyl)thio]-1-methyl-1H-imidazol-4-yl}benzonitrile] showed an IC50 of 2980 nM.

Take `Cn1c(-c2ccccn2)nc(-c2ccc(-c3nnco3)cc2)c1Sc1ccc(Cl)cn1` [Ex 36, 5-Chloro-2-({1-methyl-4-[4-(1,3,4-oxadiazol-2-yl)phenyl]-2-pyridin-2-yl-1H-imidazol-5-yl}thio)pyridine]: the IC50 amounted to 48.6 nM. Against the preceding compound, the IC50 is about 61-fold lower.

On to `Cn1c(-c2ccccn2)nc(-c2ccc(C(O)C(F)F)cc2)c1Sc1ccc(Cl)cc1` (stereo not drawn) [Ex 57, 1-(4-{5-[(4-Chlorophenyl)thio]-1-methyl-2-pyridin-2-yl-1H-imidazol-4-yl}phenyl)-2,2-difluoroethanol], for which the IC50 is 67.8 nM.

Turning to `Cn1c(-c2ccccn2)nc(-c2ccc(-n3ccnn3)cc2)c1Sc1ccc(Cl)cc1` [Ex 66], inhibition was half-maximal at 52.2 nM (IC50).

Consider `Cn1c(-c2ccccn2)nc(-c2ccc(N)cc2)c1Sc1ccc(Cl)cc1` [Ex 98, 4-{5-[(4-Chlorophenyl)thio]-1-methyl-2-pyridin-2-yl-1H-imidazol-4-yl}aniline], for which inhibition was half-maximal at 1000 nM (IC50). This IC50 is about 19-fold higher than that of the compound before.
